The EC50 is the concentration giving half of the maximal effect. A word on the AUC(0-inf): it is total exposure, with the tail of the curve extrapolated. High values mean more exposure, low ones less exposure. By Cmax is commonly meant the highest concentration seen after dosing. Broadly, the Tmax is the time from dosing to the highest level. One may read the half-life as the time needed for the level to fall by half in the phase considered. Lower therefore signals rapid decline.

Molecules are shown by their SMILES. *1 amine or outer side, *2 acyl side, *3 side chain or, on linkers, in order; H or OH if unused. Where a SMILES comes first, the peptide text is derived from it. Side-chain parts run from the residue outwards. [ ]: non-standard residue; d: D form. The star is where a group is joined. C18 diacid = O=C(O)CCCCCCCCCCCCCCCCC(=O)*; γGlu = O=C(O)[C@H](CCC(=O)[*:2])N[*:1]; AEEA = NCCOCCOCC(=O)O; Aib = CC(C)(N)C(=O)O Bounds are passed on as bounds.

One data set addresses T1, hNPY1R (Homo sapiens, UniProt P25929).
T1 sequence (P25929 1-384): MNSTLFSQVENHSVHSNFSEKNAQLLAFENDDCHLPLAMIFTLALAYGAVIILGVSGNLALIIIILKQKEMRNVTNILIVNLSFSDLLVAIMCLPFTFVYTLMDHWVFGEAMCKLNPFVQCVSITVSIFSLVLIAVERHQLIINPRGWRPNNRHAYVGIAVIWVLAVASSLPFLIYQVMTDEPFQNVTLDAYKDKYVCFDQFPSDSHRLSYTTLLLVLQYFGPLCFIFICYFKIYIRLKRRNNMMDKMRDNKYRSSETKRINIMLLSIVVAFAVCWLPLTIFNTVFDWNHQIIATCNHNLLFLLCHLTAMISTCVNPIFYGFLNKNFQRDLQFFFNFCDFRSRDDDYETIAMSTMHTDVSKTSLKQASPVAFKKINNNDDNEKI
The data set is described as follows: calcium flux assay (FLIPR), in vitro functional activity on human NPY1 receptor. The data set is classed as cell-based. To be noted: initial concentration 1 µM, average of at least 3 independent tests.

Data set [1] addresses T2, recombinant human NPY2 receptor (Homo sapiens, UniProt P49146).
T2 construct: expressed in transfected cells; host or cells: HEK 293
T2 sequence (P49146 1-381): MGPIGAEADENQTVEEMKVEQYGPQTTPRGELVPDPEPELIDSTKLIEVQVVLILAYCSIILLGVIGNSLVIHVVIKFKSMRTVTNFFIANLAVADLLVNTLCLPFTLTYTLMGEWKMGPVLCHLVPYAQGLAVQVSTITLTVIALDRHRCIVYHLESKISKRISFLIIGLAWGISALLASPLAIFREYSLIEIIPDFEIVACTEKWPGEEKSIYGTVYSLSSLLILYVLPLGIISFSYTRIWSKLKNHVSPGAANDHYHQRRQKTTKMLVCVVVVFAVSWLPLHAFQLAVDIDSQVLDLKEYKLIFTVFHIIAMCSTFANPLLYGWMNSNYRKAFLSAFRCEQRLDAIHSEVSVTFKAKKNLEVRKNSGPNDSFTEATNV
The data set can be described thus: cAMP assay, in vitro functional activity on NPY2 receptors (inhibition of Forskolin-induced cAMP production). Type of data set: cell-based. To be noted: HEK 293 cells overexpressing recombinant human NPY2 receptor; average of at least 3 independent tests; read-out: hNPY2R EC50. Here is the method:
After addition, they were centrifuged at 1000 rpm for 1 minute. • 5) 5 µL of 2 µM Forskolin (prepared with detection buffer) was added to a 384-well cell reaction plate using Multidrop Combi and centrifuged at 1000 rpm for 1 minute. 5 µL of detection buffer containing cells was added to a 384-well reaction plate, ensuring a cell count of 3000 cells per well. […] It was covered with a lid and incubated at room temperature in the dark for 1 hour. • 7) After incubation for 1 hour, it was placed in an EnVision microplate reader for measurement.
(Cyclic AMP is a second messenger, typically raised through Gs and lowered through Gi signalling.)

Data set [2] in a line: plasma pharmacokinetics in SD rats (LC-MS/MS). The data set is classed as in vivo. The following applies: rat, sc, male rats, single subcutaneous 0.492 mg/kg. On the procedure:
(§1) Blood samples were collected from each animal at each time point after administration, and the blood samples were centrifuged at around 4°C, 3200 g, for 10 minutes. Plasma was collected separately, transferred to pre-labeled 96-well plates or polypropylene tubes, speedily frozen on dry ice, and stored at -60°C or lower until LC-MS/MS analysis.
(§2) LC-MS/MS method was adopted to determine the concentration of the measured analogues in blood samples. The data on the changes in plasma concentration over time were plotted into a chart and analyzed using non partitioned methods with Phoenix WinNonlin 6.3 software program. Relevant PK parameters were calculated based on the administration routes.
The plasma pharmacokinetics of PYY analogues in male SD rats were evaluated after a single subcutaneous administration of 0.492 mg/kg Analogue 3. Blood samples were collected from 3 rats at each time point after administration for 0.5h, 1h, 2h, 4h, 8h, 12h, 16h, 24h, 48h, 72h, 96h, 120h, 144h, 168h, extending to 168h. Due to the use of discontinuous sampling to evaluate the kinetics of PYY analogues in rats, the pharmacokinetic parameters of Analogue 3 after a single subcutaneous administration of 0.492 mg/kg were listed using average concentration-time data.

Data set [3] is described as follows: plasma pharmacokinetics in crab-eating macaques (LC-MS/MS). The data set is classed as in vivo. The following applies: monkey, sc, male crab-eating macaques, single subcutaneous 0.246 mg/kg. Here is the method:
as §1, §2
The plasma pharmacokinetics of PYY analogues in male crab-eating macaques were evaluated after a single subcutaneous administration of 0.246 mg/kg Analogue 3. Blood samples were collected from 2 crab-eating macaques at each time point after administration for 1h, 2h, 4h, 8h, 12h, 24h, 48h, 72h, 96h, 120h, 144h, 168h, 192h, 240h, 288h, 336h, 408h, 504h, extending to 504 hours. Due to the use of discontinuous sampling to evaluate the kinetics of PYY analogues in crab-eating macaques, the pharmacokinetic parameters of Analogue 3 after a single subcutaneous administration of 0.246 mg/kg were listed using average concentration-time data.

Description for hNPY1R: • 1) Preparation of test analogue and positive reference agonist: the test analogue was diluted 4-fold to 10 concentrations using Bravo, transferred 900 nL to the analogue plate using Echo, and then added with 30 µL of detection buffer (20 mM HEPES, 1×HBSS, 0.1% casein) to each well. The initial concentration of the test analogue and the positive reference agonist were 1 µM. • 2) The cell plate was removed from the incubator (cell Y1 needs to be removed of the culture medium and added with 20 µL of detection buffer, otherwise they will all be a high signal; it is not necessary for Y5), added with 2*Fluo-4 detection reagent, 20 µL per well, incubated in a 37°C incubator for 50 minutes, and then left to stand at room temperature for 10 minutes. • 3) The cell plate, the analogue plate, and the pipette tip were placed into the FLIPR instrument, the instrument was started, and 10 µL of analogue was transferred from the analogue plate to the cell plate. […] Using the logarithm of the concentration of analogues as the horizontal axis and the activation rate of calcium ion fluorescence signal as the vertical axis, the "Nonlinear regression (curve fit)-log (antigen) vs. response Variable slope" model in GraphPad Prism 5.0 was used for fitting to calculate the EC50 of the sample.

With `CC(C)C[C@H](NC(=O)[C@H](Cc1ccc(O)cc1)NC(=O)[C@H](Cc1c[nH]cn1)NC(=O)[C@H](CCCNC(=N)N)NC(=O)[C@H](CC(C)C)NC(=O)[C@H](CO)NC(=O)C(C)(C)NC(=O)[C@H](Cc1ccc(O)cc1)NC(=O)[C@H](Cc1ccc(O)cc1)NC(=O)[C@H](CCCNC(=N)N)NC(=O)[C@H](CCC(N)=O)NC(=O)[C@H](Cc1c[nH]c2ccccc12)NC(=O)[C@H](CCC(=O)O)NC(=O)[C@H](CCC(=O)O)NC(=O)[C@@H]1CCCN1C(=O)[C@H](CO)NC(=O)C(C)(C)NC(=O)[C@H](CC(=O)O)NC(=O)[C@H](CCC(=O)O)NC(=O)[C@H](CCC(=O)O)NC(=O)[C@@H]1CCCN1C(=O)[C@H](CCCCNC(=O)COCCOCCNC(=O)CC[C@H](NC(=O)CCCCCCCCCCCCCCCCC(=O)O)C(=O)O)NC(=O)[C@H](CCC(=O)O)NC(=O)[C@@H]1CCCN1C(=O)[C@H](CCCCN)NC(=O)[C@@H]1CCCN1)C(=O)N[C@@H](CC(N)=O)C(=O)N[C@@H](Cc1c[nH]c2ccccc12)C(=O)N[C@@H](CC(C)C)C(=O)N[C@H](C(=O)N[C@@H](CCCNC(=N)N)C(=O)N[C@@H](CCC(N)=O)C(=O)N[C@@H](CCCNC(=N)N)C(=O)N[C@@H](Cc1ccc(O)cc1)C(N)=O)[C@@H](C)O` [Analogue 1] (H-PKPEK([AEEA-γGlu-C18 diacid])PEED[Aib]SPEEWQRYY[Aib]SLRHYLNWLTRQRY-NH2), on hNPY1R, the concentration giving a half-maximal response (EC50) is more than 50 nM.
Consider `CC(C)C[C@H](NC(=O)[C@H](CCC(=O)O)NC(=O)[C@H](C)NC(=O)[C@H](Cc1ccc(O)cc1)NC(=O)[C@H](Cc1ccc(O)cc1)NC(=O)[C@H](CCCNC(=N)N)NC(=O)[C@H](CCC(N)=O)NC(=O)[C@H](Cc1c[nH]c2ccccc12)NC(=O)[C@H](CCC(=O)O)NC(=O)[C@H](CCC(=O)O)NC(=O)[C@@H]1CCCN1C(=O)[C@H](CO)NC(=O)[C@H](C)NC(=O)[C@H](CC(=O)O)NC(=O)C(C)(C)NC(=O)[C@H](CCC(=O)O)NC(=O)[C@@H]1CCCN1C(=O)[C@H](CCCCNC(=O)COCCOCCNC(=O)CC[C@H](NC(=O)CCCCCCCCCCCCCCCCC(=O)O)C(=O)O)NC(=O)[C@H](CCC(=O)O)NC(=O)[C@@H]1CCCN1C(=O)[C@H](CCCCN)NC(=O)[C@@H]1CCCN1)C(=O)N[C@@H](CCCNC(=N)N)C(=O)N[C@@H](Cc1c[nH]cn1)C(=O)N[C@@H](Cc1ccc(O)cc1)C(=O)N[C@@H](CC(C)C)C(=O)N[C@@H](CC(N)=O)C(=O)N[C@@H](Cc1c[nH]c2ccccc12)C(=O)N[C@@H](CC(C)C)C(=O)N[C@H](C(=O)N[C@@H](CCCNC(=N)N)C(=O)N[C@@H](CCC(N)=O)C(=O)N[C@@H](CCCNC(=N)N)C(=O)N[C@@H](Cc1ccc(O)cc1)C(N)=O)[C@@H](C)O` [Analogue 2], for which the EC50 in data set [1] is 0.037 nM; at hNPY1R, more than 50 nM.
As to `CC(C)C[C@H](NC(=O)[C@H](Cc1ccc(O)cc1)NC(=O)[C@H](Cc1c[nH]cn1)NC(=O)[C@H](CCCNC(=N)N)NC(=O)[C@H](CC(C)C)NC(=O)[C@H](CCC(=O)O)NC(=O)C(C)(C)NC(=O)[C@H](Cc1ccc(O)cc1)NC(=O)[C@H](Cc1ccc(O)cc1)NC(=O)[C@H](CCCNC(=N)N)NC(=O)[C@H](CCC(N)=O)NC(=O)[C@H](Cc1c[nH]c2ccccc12)NC(=O)[C@H](CCC(=O)O)NC(=O)[C@H](CCC(=O)O)NC(=O)[C@@H]1CCCN1C(=O)[C@H](CO)NC(=O)[C@H](C)NC(=O)[C@H](CC(=O)O)NC(=O)C(C)(C)NC(=O)[C@H](CCC(=O)O)NC(=O)[C@@H]1CCCN1C(=O)[C@H](CCCCNC(=O)COCCOCCNC(=O)CC[C@H](NC(=O)CCCCCCCCCCCCCCCCC(=O)O)C(=O)O)NC(=O)[C@H](CCC(=O)O)NC(=O)[C@@H]1CCCN1C(=O)[C@H](CCCCN)NC(=O)[C@@H]1CCCN1)C(=O)N[C@@H](CC(N)=O)C(=O)N[C@@H](Cc1c[nH]c2ccccc12)C(=O)N[C@@H](CC(C)C)C(=O)N[C@H](C(=O)N[C@@H](CCCNC(=N)N)C(=O)N[C@@H](CCC(N)=O)C(=O)N[C@@H](CCCNC(=N)N)C(=O)N[C@@H](Cc1ccc(O)cc1)C(N)=O)[C@@H](C)O` [Analogue 3], in data set [2], the AUC(0-inf) came to 79.6 µg·h/mL, the Cmax was 1940 ng/mL, the Tmax was 13.3 h and the half-life is 24.7 h. Moreover, in data set [1], the EC50 was 0.037 nM. Also, in data set [3], the AUC(0-inf) was determined as 337 µg·h/mL, the highest level (Cmax) was 1780 ng/mL, the time to peak (Tmax) turned out to be 12 h and the half-life was 126 h. Also, the EC50 on hNPY1R was more than 50 nM.

The record behind these values is patent EP4696708A1, “PEPTIDE TYROSINE-TYROSINE ANALOG AND USE THEREOF” (The United Bio-Technology (Hengqin) Co., Ltd., priority 2023, dated 2024).
